Reference: the supplement of paper PMC8671470

Columns and labels:
Conditions in all cases: 72 h
MV4-11 = tested on: MV4-11
Procedure, shortened: (§1)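 Fifteen myeloid leukaemia lines in RPMI 1640 were treated for 72 h at 37 °C and 5% CO2 with five tenfold doses from 1 to 10,000 nM, in duplicate. ATP luminescence was normalised to vehicle and to a positive control at 10 µM, then fitted with a four-parameter log-logistic model. The IC50 came from these fits.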

ML-2 = tested on: ML-2
Procedure, shortened: as §1

KU-812 = tested on: KU-812
Procedure, shortened: as §1

Mono-Mac-6 = tested on: Mono-Mac-6
Procedure, shortened: as §1

KG-1 = tested on: KG-1
Procedure, shortened: as §1

HEL = tested on: HEL
Procedure, shortened: as §1

K-562 = tested on: K-562
Procedure, shortened: as §1

HL-60 = tested on: HL-60
Procedure, shortened: as §1

KCL-22 = tested on: KCL-22
Procedure, shortened: as §1

LAMA-84 = tested on: LAMA-84
Procedure, shortened: as §1

THP-1 = tested on: THP-1
Procedure, shortened: as §1

SHI-1 = tested on: SHI-1
Procedure, shortened: as §1

MOLM-13 [1] = tested on: MOLM-13
Procedure, shortened: as §1

NOMO-1 = tested on: NOMO-1
Procedure, shortened: as §1

BV-173 = tested on: BV-173
Procedure, shortened: as §1

MOLM-13 [2] = experiment: cell viability (% survival relative to DMSO control, bortezomib = 0%); higher = less cytotoxic
Procedure, shortened: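 Percent survival figures are means of duplicate wells. They were obtained by CellTiter-Glo luminescence after 10 AML and 5 CML cell lines spent 72 h at 37 °C with 5% CO2 in 384-well plates with compounds at 1, 10, 100, 1000 or 10000 nM. Vehicle was set to 100% and a 10 µM positive control to 0%.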

Compound	IC50 (cell viability) (MV4-11) [µM]	IC50 (cell viability) (ML-2) [µM]	IC50 (cell viability) (KU-812) [µM]	IC50 (cell viability) (Mono-Mac-6) [µM]	IC50 (cell viability) (KG-1) [µM]	IC50 (cell viability) (HEL) [µM]	IC50 (cell viability) (K-562) [µM]	IC50 (cell viability) (HL-60) [µM]	IC50 (cell viability) (KCL-22) [µM]	IC50 (cell viability) (LAMA-84) [µM]	IC50 (cell viability) (THP-1) [µM]	IC50 (cell viability) (SHI-1) [µM]	IC50 (cell viability) (MOLM-13 [1]) [µM]	IC50 (cell viability) (NOMO-1) [µM]	IC50 (cell viability) (BV-173) [µM]	cell viability (MOLM-13 [2]; 1 nM) [%]	cell viability (MOLM-13 [2]; 10 nM) [%]	cell viability (MOLM-13 [2]; 100 nM) [%]	cell viability (MOLM-13 [2]; 1000 nM) [%]	cell viability (MOLM-13 [2]; 10000 nM) [%]
O=C(O)c1nn(Cc2ccc(Cl)cc2Cl)c2ccccc12 [Lonidamine]	> 10	> 10	> 10	> 10	> 10	> 10	> 10	> 10	> 10	> 10	> 10	> 10	> 10	> 10	> 10	102	113	116	91.3	98.4
CCOc1ccc(Cc2cc([C@@H]3O[C@H](CO)[C@@H](O)[C@H](O)[C@H]3O)ccc2Cl)cc1 [Dapagliflozin]	> 10	> 10	> 10	> 10	> 10	> 10	> 10	> 10	> 10	> 10	> 10	> 10	> 10	> 10	> 10	92.8	111	91.1	103	121
C#Cc1cnc(O)nc1O [Eniluracil]	> 10	> 10	> 10	> 10	> 10	> 10	> 10	> 10	> 10	> 10	> 10	> 10	> 10	> 10	> 10	75.5	108	114	91.4	104
O=C(O)C(Cl)Cl [Dichloroacetate]	> 10	> 10	> 10	> 10	> 10	> 10	> 10	> 10	> 10	> 10	> 10	> 10	> 10	> 10	> 10	95.9	99.5	97.7	89.4	102
CCCc1nn(C)c2c(O)nc(-c3cc(S(=O)(=O)N4CCN(C)CC4)ccc3OCC)nc12 [Sildenafil]	> 10	> 10	> 10	> 10	> 10	> 10	> 10	> 10	> 10	> 10	> 10	> 10	> 10	> 10	> 10	101	112	96.3	125	106
COc1c(C)c2c(c(O)c1C/C=C(\C)CCC(=O)O)C(=O)OC2 [Mycophenolic acid]	0.507	0.333	0.954	1.83	2.34	1.01	0.561	0.652	0.289	0.771	> 10	2.52	0.183	2.55	0.679	109	109	70.9	13	2.42
Cc1c(-c2ccccc2)oc2c(C(=O)OCCN3CCCCC3)cccc2c1=O.Cl [Flavoxate]	> 10	> 10	> 10	> 10	> 10	> 10	> 10	> 10	> 10	> 10	> 10	> 10	> 10	> 10	> 10	92.9	107	95.4	92.6	81.6
CC(Cc1ccc(O)c(O)c1)C(C)Cc1ccc(O)c(O)c1 (stereo not given) [Masoprocol]	3.8	3.42	> 10	2.08	6.63	> 10	> 10	3.15	> 10	> 10	> 10	> 10	> 10	> 10	3.66	98.4	106	110	91.2	65.8
N[C@](CCCCB(O)O)(CCN1CCCCC1)C(=O)O [Arginase inhibitor 1]	> 10	> 10	> 10	> 10	> 10	> 10	> 10	> 10	> 10	> 10	> 10	> 10	> 10	> 10	> 10	106	99.8	117	74.4	72
[N-]=[N+]=CC(=O)CC[C@H](N)C(=O)O [6-Diazo-5-oxo-L-norleucine]	> 10	> 10	> 10	> 10	> 10	> 10	> 10	> 10	> 10	> 10	> 10	> 10	> 10	> 10	> 10	106	111	119	101	116
O=C(COc1ccc(C(=O)c2ccccc2)cc1)NC1CCN(Cc2ccccc2)CC1 [AdipoRon]	> 10	> 10	8.38	> 10	9.73	> 10	> 10	> 10	> 10	> 10	> 10	> 10	> 10	> 10	7.82	94	106	93.6	105	76.5
CCN(CC)CCN(Cc1ccc(-c2ccc(C(F)(F)F)cc2)cc1)C(=O)Cn1c(SCc2ccc(F)cc2)nc(=O)c2c1CCC2 [Darapladib]	3.36	2.62	1.98	2.9	2.42	2.63	1.64	2.07	2.32	2.23	2.94	2.59	2.15	2.82	2.15	123	94.6	88.2	83.8	-0.315
O=C1Nc2ccccc2/C1=C\NCCc1ccc(O)c(O)c1 [AC1NZZMF]	> 10	> 10	> 10	> 10	> 10	> 10	> 10	> 10	> 10	> 10	> 10	> 10	> 10	> 10	> 10	97.6	104	101	108	88.9
CCOC(=O)[C@@]1(CCCCCCOc2ccc(Cl)cc2)CO1 [Etomoxir]	> 10	> 10	> 10	> 10	> 10	> 10	> 10	> 10	> 10	5.83	> 10	> 10	> 10	> 10	6.76	134	99.7	93.1	92	93
Cc1ccc(S(=O)(=O)NC2c3ccccc3Oc3ccccc32)cc1 [AH-7614]	> 10	> 10	> 10	> 10	> 10	> 10	> 10	> 10	> 10	> 10	> 10	> 10	> 10	> 10	> 10	95.3	113	111	102	93.7
O=P(O)(O)C(O)(Cn1ccnc1)P(=O)(O)O [Zoledronic acid]	> 10	> 10	> 10	> 10	> 10	> 10	> 10	> 10	> 10	> 10	> 10	> 10	> 10	> 10	> 10	99.2	117	103	84.5	99.8
c1ccc2c(c1)OCC(=C1NCCN1)O2 [Idazoxan]	> 10	> 10	> 10	> 10	> 10	> 10	> 10	> 10	> 10	> 10	> 10	> 10	> 10	> 10	> 10	97.2	109	95.1	89.5	102
C[C@]12CC[C@H](O)CC1=CC[C@@H]1[C@@H]2CC[C@]2(C)C(c3cccnc3)=CC[C@@H]12 [Abiraterone]	> 10	> 10	> 10	> 10	> 10	> 10	> 10	> 10	> 10	> 10	> 10	> 10	> 10	> 10	> 10	113	122	111	117	69.9
Cc1coc2c1C(=O)C(=O)c1c-2ccc2c(C)cccc12 [Tanshinone I]	> 10	> 10	> 10	> 10	> 10	> 10	> 10	> 10	> 10	> 10	> 10	> 10	> 10	> 10	> 10	89.8	103	127	94.3	101
O=C(O)C(S)=Cc1c[nH]c2ccc(F)cc12	> 10	> 10	> 10	> 10	> 10	> 10	> 10	> 10	> 10	> 10	> 10	> 10	> 10	> 10	> 10	95.9	103	99.9	107	77.3
CC12CCC(O)CC1CCC1C2CCC2(C)C(C3=CC(=O)OC3)CCC12O (stereo not given) [Digitoxigenin]	0.323	0.35	0.368	0.213	0.264	0.336	0.184	0.338	0.331	0.234	0.286	0.358	0.122	0.437	0.24	68.7	116	54.5	0.802	-1.32
Sc1ncnc2nc[nH]c12 [6-mercaptopurine]	0.332	1.1	2.51	1.03	> 10	1.91	0.732	0.964	1.01	1.33	> 10	1.52	0.907	0.441	0.527	117	87.6	108	53	16
C1CCc2nnc(C34CC5CC(CC(C5)C3)C4)n2CC1 [MERCK-544]	> 10	> 10	> 10	> 10	> 10	> 10	> 10	> 10	> 10	> 10	> 10	> 10	> 10	> 10	> 10	97.3	126	115	80.7	118
Cl.OC[C@H]1NC[C@@H](O)[C@@H](O)[C@@H]1O [1-Deoxymannojirimycin hydrochloride]	> 10	> 10	> 10	> 10	> 10	> 10	> 10	> 10	> 10	> 10	> 10	> 10	> 10	> 10	> 10	115	88.3	96.3	104	105
Nc1ncnc2c1ncn2[C@@H]1O[C@H](CSCC[C@H](N)C(=O)O)[C@@H](O)[C@H]1O [S-Adenosyl Homocysteine]	> 10	> 10	> 10	> 10	> 10	> 10	> 10	> 10	> 10	> 10	> 10	> 10	> 10	> 10	> 10	100	130	114	115	125
